Assay results: patent US11453671B2, “Pyrazolopyrimidine inhibitors of JAK kinases and uses thereof” (Genentech, Inc., priority 2020, dated 2022)

What was measured:
[1] = biological target: T1, recombinant human JAK1 kinase domain protein (Residues 854-1154) (Homo sapiens, UniProt P23458); assay: JAK1 biochemical assay (microfluidic mobility shift, peptide phosphorylation); conditions: 25 μM ATP, 1 nM total JAK1; read-out: Enzyme JAK1 Ki
T1 construct: human JAK1 kinase domain protein (Residues 854-1154); purchased Proteros Biostructures GmbH (Martinsried, Germany); host or cells: insect cells
T1 sequence (P23458 854-1154): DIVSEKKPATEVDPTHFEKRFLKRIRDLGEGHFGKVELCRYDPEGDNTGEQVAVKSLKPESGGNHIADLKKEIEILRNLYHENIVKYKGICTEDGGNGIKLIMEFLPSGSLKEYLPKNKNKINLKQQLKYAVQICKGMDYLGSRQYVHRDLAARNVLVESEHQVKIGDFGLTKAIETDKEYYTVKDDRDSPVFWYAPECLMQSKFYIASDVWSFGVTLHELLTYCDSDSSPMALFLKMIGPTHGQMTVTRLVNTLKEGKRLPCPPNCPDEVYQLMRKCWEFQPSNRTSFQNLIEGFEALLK
Excerpt: JAK1 and JAK2 Biochemical Assays

[2] = Mouse lung tissue binding (equilibrium dialysis, RED); type: in vitro ADME; conditions: for Mouse LTB %: mouse lung tissue binding, % bound (Table 3)
Method: Mouse lung tissue binding. A high bound fraction or percentage of JAK1/JAK2 inhibitors to lung tissue may be undesirable since it can reduce the amount of free drug available to inhibit JAK1 or JAK2.
(a) Tissue binding experiments were performed in triplicate (n=3) using a Single-Use RED Plate by following the standard protocol. Initially, individual drugs were spiked to tissue homogenates (pH 7.4) to achieve a final concentration of 1 μM, and then 300 μL of drug-tissue homogenate mixtures were transferred to the donor wells of the RED plate which was pre-loaded with 500 μL phosphate buffer saline (133 mM) on the receiver wells. The RED plate was sealed with a gas permeable membrane and placed in a shaking incubator (450 rpm, VWR Symphony™) for 6 hr at 37° C. with 5% CO2. At the end of incubation, aliquots of 30 μL samples were taken out of the RED device and matrix equalized with an equal volume of tissue homogenates or buffer, and resulting samples were then immediately quenched with ice cold acetonitrile (sample:acetonitrile 1:4) containing either propranolol or labetalol as an internal standard. After shaking for 15 min at 500 rpm on a Thermo Scientific Compact Digital MicroPlate Shaker, all samples were then subjected to centrifugation at 3700 rpm for 15 min (Beckman Coulter Allegra X 12R) to remove plasma protein. Subsequently, supernatants were collected and then diluted with an equal volume of water prior to LC-MS/MS analysis.
(b) In an alternate procedure, the extent of lung tissue binding of test compound to mouse lung homogenate may also be determined by equilibrium dialysis using Pierce RED (rapid equilibrium dialysis) devices (Fisher Scientific 89811 & 89809). A 10 mM solution of compound in DMSO was prepared and diluted to 1 mM with DMSO. An aliquot of this 1 mM (4 μL) was added into lung homogenate (dilution factor of 1:9, lung tissue:potassium phosphate buffer (0.05 M, pH 7.4)) to give a final compound incubation concentration of 5 μM with solvent accounting for 0.5% (v/v) of the final incubation volume.
For each assay, the percentage lung tissue bound was determined in triplicate. Lung homogenate (200 μL) was loaded into one side of a RED device insert, in triplicate, and 350 μL of potassium phosphate buffer was loaded into the other side. The RED devices were sealed and incubated for 4 hours at ca. 37° C. on an orbital shaker (˜150 rpm).
Following incubation, an aliquot of lung homogenate (8 μL) and an aliquot of dialysate (72 μL) were matrix matched (lung homogenate with 72 μL phosphate buffer, dialysate with 8 μL lung homogenate) ahead of analysis. Protein was precipitated from the samples with the addition of 160 μL of acetonitrile containing internal standard. The same matrix matching and protein precipitation procedure was performed on lung homogenate aliquots sampled at the start of the experiment (t=0 min samples), for the assessment of the mass balance. The quenched samples were centrifuged (4000 rpm, 30 min, 4° C.) and the resultant supernatant diluted with water (3:1 (v/v), supernatant: water) and the samples analysed for parent compound by liquid chromatography mass spectrometry assay.
The unbound fraction (fu) in lung homogenate was determined from the ratio of the dialysate to homogenate peak area, corrected to take into account the lung homogenate dilution (D) to enable an estimate of whole lung tissue binding using the following equations: Undiluted fu=(1/D)/[((1/Apparent fu)−1)+(1/D)] Corrected fraction bound (%)=(1-undiluted fu)*100

[3] = Cell cytotoxicity assay HEK-293T (CellTiter-Glo, 72 hours); type: cell-based; conditions: human, HEK-293T cells, Table 3; 72 hours, top concentration of 50 μM; read-out: Cytotox K-293 EC50
Excerpt: (§1) Cytotoxicity assays. Hepatocyte toxicity, general cytotoxicity or cytotoxicity of unknown mechanism is an undesirable feature for a potential drug, including inhaled drugs. It may be of benefit for an inhaled JAK1 or JAK1/JAK2 inhibitor to have low intrinsic cytotoxicity against various cell types. Typical cell types used to assess cytotoxicity include both primary cells such as human hepatocytes, and proliferating established cell lines such as Jurkat and HEK-293. […] Methods of measuring cytotoxicity are known in the art. In some embodiments, compounds described herein were tested as follows:
(§2) (a) Jurkat and HEK293T cells were maintained at a sub confluent density in T175 flasks. Cells were plated at 450 cells/45 μl medium in Greiner 384 well black/clear tissue culture treated plates. (Greiner Catalog #781091). After dispensing cells, plates were equilibrated at room temperature for 30 minutes. After 30 minutes at room temperature, cells were incubated overnight at 37° C. in a CO2 and humidity controlled incubator. The following day, cells were treated with compounds diluted in 100% DMSO (final DMSO concentration on cells=0.5%) with a 10 point dose-response curve with a top concentration of 50 μM. Cells and compounds were then incubated for 72 hours overnight at 37° C. in a CO2 and humidity controlled incubator. After 72 hours of incubation, viability was measured using CellTiterGlo® (Promega Catalog #G7572) to all wells. After incubation at room temperature for 20 minutes, plates were read on EnVision™ (Perkin Elmer Life Sciences) using luminescence mode;
(§3) A549 (ATCC® CCL-185™), Jurkat clone E6-1 (ATCC® TIB-152™) and HEK-293T (ATCC® CRL-1573™) cells maintained at a sub-confluent density in T175 flasks were used. Cells in exponential growth phase were plated (450 cells in 45 μL of medium) in Greiner 384-well black/clear tissue culture treated plates (Greiner Catalog No. 781091). After dispensing cells, plates were allowed to equilibrate at room temperature for 30 minutes, after which time the cell plates were placed overnight in a 37° C. CO2 and humidity-controlled incubator. The following day, cells were treated with test agent diluted in 100% DMSO (0.5% final DMSO concentration on cells) with a 10-point titration and a top concentration of 50 μM. Cells and compounds were then incubated for 72 hours in a 37° C. CO2 and humidity-controlled incubator, after which time cell viability was measured by adding CellTiter-Glo® (Promega G7572) reagent to all wells. Plates were incubated at room temperature for 20 minutes and then the well luminescence was read on an EnVision plate reader (Perkin Elmer Life Sciences).

[4] = Cell cytotoxicity assay Jurkat (CellTiter-Glo, 72 hours); type: cell-based; conditions: human, Jurkat clone E6-1 cells, Table 3; 72 hours, top concentration of 50 μM; read-out: Cytotox Jurkat EC50
Excerpt: as §1, §2, §3

[5] = Cell cytotoxicity assay A549 (CellTiter-Glo, 72 hours); type: cell-based; conditions: human, A549 cells, Table 3; 72 hours, top concentration of 50 μM; read-out: Cytotox A549 EC50
Method: as §3

[6] = biological target: Recombinant human JAK2 kinase domain protein (Residues 812-1132) (Homo sapiens, UniProt O60674); assay: JAK2 biochemical assay (microfluidic mobility shift, peptide phosphorylation); conditions: Enzyme JAK2 Ki (nM), 25 μM ATP, 0.2 nM total JAK2
Recombinant human JAK2 kinase domain protein (Residues 812-1132), sequence (O60674 812-1132): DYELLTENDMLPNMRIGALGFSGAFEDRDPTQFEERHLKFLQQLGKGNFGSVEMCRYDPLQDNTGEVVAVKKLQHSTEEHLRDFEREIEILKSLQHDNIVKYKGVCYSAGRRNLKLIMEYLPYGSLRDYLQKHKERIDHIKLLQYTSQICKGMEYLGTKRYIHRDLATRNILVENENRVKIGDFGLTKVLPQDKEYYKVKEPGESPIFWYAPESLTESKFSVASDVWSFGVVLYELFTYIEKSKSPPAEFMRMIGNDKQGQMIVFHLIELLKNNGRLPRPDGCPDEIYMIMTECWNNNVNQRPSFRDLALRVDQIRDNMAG

SMILES | Ki [1] [µM] | Mouse LTB % [2] [%] | Ki [6] [nM] | Lung tissue binding, % ([2]; Table 5, sulfone-sulfide analog pairs) [%] | EC50 at 72 h [3] [µM] | EC50 at 72 h [4] [µM] | EC50 at 72 h [5] [µM]
Cn1cc(NC(=O)c2cnn3cccnc23)c(-c2cc(S(=O)(=O)c3ccccc3)ccc2OC(F)F)n1 [Example 40, N-[3-[5-(benzenesulfonyl)-2-(difluoromethoxy)phenyl]-1-methyl-pyrazol-4-yl]pyrazolo[1,5-a]pyrimidine-3-carboxamide] | 0.00021 | 95.6 | 0.11 | – | ≥ 50 | ≥ 50 | ≥ 50
Cn1cc(NC(=O)c2cnn3cccnc23)c(-c2cc(S(=O)(=O)CCCO)ccc2OC(F)F)n1 [Example 63, N-[3-[2-(difluoromethoxy)-5-(3-hydroxypropylsulfonyl)phenyl]-1-methyl-pyrazol-4-yl]pyrazolo[1,5-a]pyrimidine-3-carboxamide] | 0.00058 | 80.5 | 0.28 | – | 20 | 35 | ≥ 50
Cn1cc(NC(=O)c2cnn3cccnc23)c(-c2cc(S(=O)(=O)C3CC3)ccc2OC(F)F)n1 [Example 22, N-[3-[5-cyclopropylsulfonyl-2-(difluoromethoxy)phenyl]-1-methyl-pyrazol-4-yl]pyrazolo[1,5-a]pyrimidine-3-carboxamide] | 0.00046 | 88.7 | 0.19 | – | 43 | ≥ 50 | ≥ 50
C[C@H](O)CS(=O)(=O)c1ccc(OC(F)F)c(-c2nn(C)cc2NC(=O)c2cnn3cccnc23)c1 (stereo in doubt) [Example 15, N-[3-[2-(difluoromethoxy)-5-[rac-(2S)-2-hydroxypropyl]sulfonyl-phenyl]-1-methyl-pyrazol-4-yl]pyrazolo[1,5-a]pyrimidine-3-carboxamide] | 0.00043 | 85.7 | 0.16 | – | 25 | 35 | 25
CC(CO)S(=O)(=O)c1ccc(OC(F)F)c(-c2nn(C)cc2NC(=O)c2cnn3cccnc23)c1 (single isomer, unassigned) [Example 23, N-[3-[2-(difluoromethoxy)-5-(2-hydroxy-1-methyl-ethyl)sulfonyl-phenyl]-1-methyl-pyrazol-4-yl]pyrazolo[1,5-a]pyrimidine-3-carboxamide] | 0.00026 | 82.1 | 0.13 | – | 11 | 24 | 28
Cn1cc(NC(=O)c2cnn3cccnc23)c(-c2cc(S(=O)(=O)C3COC3)ccc2OC(F)F)n1 [Example 13, N-[3-[2-(difluoromethoxy)-5-(oxetan-3-ylsulfonyl)phenyl]-1-methyl-pyrazol-4-yl]pyrazolo[1,5-a]pyrimidine-3-carboxamide] | 0.0004 | 85 | 0.19 | 85.8 | 31 | ≥ 50 | 44
COCCS(=O)(=O)c1ccc(OC(F)F)c(-c2nn(C)cc2NC(=O)c2cnn3cccnc23)c1 [Example 14, N-[3-[2-(difluoromethoxy)-5-(2-methoxyethylsulfonyl)phenyl]-1-methyl-pyrazol-4-yl]pyrazolo[1,5-a]pyrimidine-3-carboxamide] | 0.00049 | 80.1 | – | – | 32 | ≥ 50 | ≥ 50

More lines, main results first:

Ki [1] [µM] | Mouse LTB % [2] [%] | Ki [6] [nM] | Lung tissue binding, % ([2]; Table 5, sulfone-sulfide analog pairs) [%] | SMILES | EC50 at 72 h [3] [µM] | EC50 at 72 h [4] [µM] | EC50 at 72 h [5] [µM]
0.00071 | 91.4 | 0.76 | – | CN1CCCC1CCn1cc(S(=O)(=O)c2ccc(OC(F)F)c(-c3nn(C)cc3NC(=O)c3cnn4cccnc34)c2)cn1 (stereo in doubt) [Example 56, N-[3-[2-(difluoromethoxy)-5-[1-[2-[(2R)-1-methylpyrrolidin-2-yl]ethyl]pyrazol-4-yl]sulfonyl-phenyl]-1-methyl-pyrazol-4-yl]pyrazolo[1,5-a]pyrimidine-3-carboxamide] | 10 | 24 | ≥ 50
0.00032 | 87.3 | 0.19 | – | Cn1cc(NC(=O)c2cnn3cccnc23)c(-c2cc(S(=O)(=O)c3ccncc3)ccc2OC(F)F)n1 [Example 16, N-[3-[2-(difluoromethoxy)-5-(4-pyridylsulfonyl)phenyl]-1-methyl-pyrazol-4-yl]pyrazolo[1,5-a]pyrimidine-3-carboxamide] | 7.6 | 6.2 | 7.4
0.00046 | 81.7 | 0.19 | – | CC(CO)S(=O)(=O)c1ccc(OC(F)F)c(-c2nn(C)cc2NC(=O)c2cnn3cccnc23)c1 (single isomer, unassigned) [Example 24, N-[3-[2-(difluoromethoxy)-5-(2-hydroxy-1-methyl-ethyl)sulfonyl-phenyl]-1-methyl-pyrazol-4-yl]pyrazolo[1,5-a]pyrimidine-3-carboxamide] | – | – | –
0.00053 | – | 0.54 | – | C[C@H](Cn1cc(S(=O)(=O)c2ccc(OC(F)F)c(-c3nn(C)cc3NC(=O)c3cnn4cccnc34)c2)cn1)N(C)C [Example 59, N-[3-[2-(difluoromethoxy)-5-[1-[(2R)-2-(dimethylamino)propyl]pyrazol-4-yl]sulfonyl-phenyl]-1-methyl-pyrazol-4-yl]pyrazolo[1,5-a]pyrimidine-3-carboxamide] | 14 | 30 | 43
